≈ marks a conversion by molar mass, not a printed value.
Test system: E. coli strain DH5α
Assay: Minimal inhibitory concentration (MIC) against E. coli
Format: cell-based
Conditions: Escherichia coli; 2×YT broth, 37° C., 18 hours; lowest drug concentration that inhibited visible growth
Method: Minimal inhibitory concentrations (MIC) of inhibitors against E. coli strain DH5α (Genotype; F-φ80dlacZΔM15Δ(lacZYA-argF)U169 deoR recA1 endA1 hsdR17(rk^−,mk^+)phoA supE44λ^− thi-1 gyrA96 relA1) obtained from GibcoBRL Life Technologies, Enterobacter cloacae (American Type Culture Collection number 13047), Klebsiella pneumoniae (American Type Culture Collection number 13883) or Staphylococcus capitis (American Type Culture Collection number 35661) were determined as follows. Stock solutions of test compound (Compounds 1 and 2 from Examples 1 and 2 respectively (both isomer A)) and three standard laboratory antibiotics, carbenicillin (Sigma, catalogue No. C3416), kanamycin (Sigma, catalogue No. K4000) and chloramphenicol (Sigma, catalogue No. C1919), were prepared by dissolution of each compound in dimethylsulfoxide at 10 mM. […] Cell densities were adjusted to absorbance at 660 nm (A660)=0.1; the optical density-standardised preparations were diluted 1:1000 in 2×YT broth; and each well inoculated with 0.05 ml of the diluted bacteria. […] The MIC (μM) was recorded as the lowest drug concentration that inhibited visible growth.

`CCCC[C@H](CN(O)C=O)C(=O)N(C)C1CCN(C)CC1` [Example 7] showed an MIC of 12.5 µM (≈ 3.74 µg/mL).
